Experimental data: PubChem BioAssay (NCI)
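Compound exposure: 48 hours, 5 concentrations, 96-well plates. GI50 is the concentration that inhibits growth by half. Definition used: TGI = concentration required for complete inhibition of growth.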

What was measured:
Experiment in all cases: inhibition of tumour cell growth, NCI panel, 48 h
SK-MEL-5 melanoma = system: SK-MEL-5 melanoma
MOLT-4 leukemia = system: MOLT-4 leukemia
UO-31 renal = system: UO-31 renal
ACHN renal = system: ACHN renal
SF-539 CNS = system: SF-539 CNS
HCC-2998 colon = system: HCC-2998 colon
NCI-H226 lung = system: NCI-H226 lung
UACC-62 melanoma = system: UACC-62 melanoma
SK-OV-3 ovarian = system: SK-OV-3 ovarian
HOP-92 NSCLC = system: HOP-92 NSCLC
NCI-H460 lung = system: NCI-H460 lung
MCF7 breast = system: MCF7 breast
RXF 393 renal = system: RXF 393 renal
OVCAR-3 ovarian = system: OVCAR-3 ovarian
SNB-19 CNS = system: SNB-19 CNS
NCI/ADR-RES ovarian = system: NCI/ADR-RES ovarian
SF-295 CNS = system: SF-295 CNS
SW-620 colon = system: SW-620 colon
LOX IMVI melanoma = system: LOX IMVI melanoma
DU-145 prostate = system: DU-145 prostate
BT-549 breast = system: BT-549 breast
NCI-H23 lung = system: NCI-H23 lung
MDA-MB-231 breast = system: MDA-MB-231 breast
T-47D breast = system: T-47D breast
IGROV1 ovarian = system: IGROV1 ovarian
SK-MEL-28 melanoma = system: SK-MEL-28 melanoma
OVCAR-8 ovarian = system: OVCAR-8 ovarian
TK-10 renal = system: TK-10 renal
U251 CNS = system: U251 CNS
KM12 colon = system: KM12 colon
A498 renal = system: A498 renal
CAKI-1 renal = system: CAKI-1 renal
RPMI-8226 leukemia = system: RPMI-8226 leukemia
PC-3 prostate = system: PC-3 prostate
SR leukemia = system: SR leukemia
SN12C renal = system: SN12C renal
MALME-3M melanoma = system: MALME-3M melanoma
MDA-MB-435 = system: MDA-MB-435
786-0 renal = system: 786-0 renal
HCT-116 colon = system: HCT-116 colon
M14 melanoma = system: M14 melanoma
HOP-62 NSCLC = system: HOP-62 NSCLC
HT29 colon = system: HT29 colon
K-562 leukemia = system: K-562 leukemia
SF-268 CNS = system: SF-268 CNS
OVCAR-4 ovarian = system: OVCAR-4 ovarian
HS 578T breast = system: HS 578T breast
HL-60(TB) leukemia = system: HL-60(TB) leukemia
HCT-15 colon = system: HCT-15 colon
SNB-75 CNS = system: SNB-75 CNS
SK-MEL-2 melanoma = system: SK-MEL-2 melanoma
COLO 205 colon = system: COLO 205 colon
OVCAR-5 ovarian = system: OVCAR-5 ovarian

CNCCCNc1ccnc2cc(Cl)ccc12
GI50 (SK-MEL-5 melanoma): 16.4 µM | TGI (SK-MEL-5 melanoma): 31.6 µM | GI50 (MOLT-4 leukemia): 20.6 µM | TGI (MOLT-4 leukemia): 69.9 µM | GI50 (UO-31 renal): 12.8 µM | TGI (UO-31 renal): 47.7 µM | GI50 (ACHN renal): 19 µM | TGI (ACHN renal): 61.3 µM | GI50 (SF-539 CNS): 17 µM | TGI (SF-539 CNS): 33.1 µM | GI50 (HCC-2998 colon): 28.7 µM | TGI (HCC-2998 colon): > 100 µM | GI50 (NCI-H226 lung): 25.9 µM | TGI (NCI-H226 lung): 87.5 µM | GI50 (UACC-62 melanoma): 20.1 µM | TGI (UACC-62 melanoma): 45.7 µM | GI50 (SK-OV-3 ovarian): 21.9 µM | TGI (SK-OV-3 ovarian): 60.8 µM | GI50 (HOP-92 NSCLC): 9.51 µM | TGI (HOP-92 NSCLC): 39.1 µM | GI50 (NCI-H460 lung): 17.9 µM | TGI (NCI-H460 lung): 37.8 µM | GI50 (MCF7 breast): 23.4 µM | TGI (MCF7 breast): 83.8 µM | GI50 (RXF 393 renal): 14.5 µM | TGI (RXF 393 renal): 65.4 µM | GI50 (OVCAR-3 ovarian): 27.6 µM | TGI (OVCAR-3 ovarian): 95.5 µM | GI50 (SNB-19 CNS): 36.1 µM | TGI (SNB-19 CNS): > 100 µM | GI50 (NCI/ADR-RES ovarian): 34.4 µM | TGI (NCI/ADR-RES ovarian): > 100 µM | GI50 (SF-295 CNS): 27.1 µM | TGI (SF-295 CNS): > 100 µM | GI50 (SW-620 colon): 13.2 µM | TGI (SW-620 colon): 58.8 µM | GI50 (LOX IMVI melanoma): 16.8 µM | TGI (LOX IMVI melanoma): 36.6 µM | GI50 (DU-145 prostate): 17.3 µM | TGI (DU-145 prostate): 38.5 µM | GI50 (BT-549 breast): 28.3 µM | TGI (BT-549 breast): > 100 µM | GI50 (NCI-H23 lung): 30.8 µM | TGI (NCI-H23 lung): > 100 µM | GI50 (MDA-MB-231 breast): 12.7 µM | TGI (MDA-MB-231 breast): 56.5 µM | GI50 (T-47D breast): 25.7 µM | TGI (T-47D breast): > 100 µM | GI50 (IGROV1 ovarian): 18.8 µM | TGI (IGROV1 ovarian): 63.8 µM | GI50 (SK-MEL-28 melanoma): 15.5 µM | TGI (SK-MEL-28 melanoma): 34.6 µM | GI50 (OVCAR-8 ovarian): 28.3 µM | TGI (OVCAR-8 ovarian): > 100 µM | GI50 (TK-10 renal): 18 µM | TGI (TK-10 renal): 54.4 µM | GI50 (U251 CNS): 22.5 µM | TGI (U251 CNS): 62.4 µM | GI50 (KM12 colon): 19.4 µM | TGI (KM12 colon): 67.6 µM | GI50 (A498 renal): 12.4 µM | TGI (A498 renal): 40.3 µM | GI50 (CAKI-1 renal): 17.3 µM | TGI (CAKI-1 renal): 48.6 µM | GI50 (RPMI-8226 leukemia): 20 µM | TGI (RPMI-8226 leukemia): 55.7 µM | GI50 (PC-3 prostate): 17.9 µM | TGI (PC-3 prostate): 57 µM | GI50 (SR leukemia): 22.5 µM | TGI (SR leukemia): 70.8 µM | GI50 (SN12C renal): 24.6 µM | TGI (SN12C renal): > 100 µM | GI50 (MALME-3M melanoma): 19.7 µM | TGI (MALME-3M melanoma): 40.5 µM | GI50 (MDA-MB-435): 14.4 µM | TGI (MDA-MB-435): 28.4 µM | GI50 (786-0 renal): 32.9 µM | TGI (786-0 renal): > 100 µM | GI50 (HCT-116 colon): 11.2 µM | TGI (HCT-116 colon): 41.4 µM | GI50 (M14 melanoma): 16 µM | TGI (M14 melanoma): 34.4 µM | GI50 (HOP-62 NSCLC): 22.4 µM | TGI (HOP-62 NSCLC): > 100 µM | GI50 (HT29 colon): 13.4 µM | TGI (HT29 colon): 55.5 µM | GI50 (K-562 leukemia): 15.2 µM | TGI (K-562 leukemia): > 100 µM | GI50 (SF-268 CNS): 22.6 µM | TGI (SF-268 CNS): 98.3 µM | GI50 (OVCAR-4 ovarian): 18.7 µM | TGI (OVCAR-4 ovarian): 57.4 µM | GI50 (HS 578T breast): 20.8 µM | TGI (HS 578T breast): 78 µM | GI50 (HL-60(TB) leukemia): 22.1 µM | TGI (HL-60(TB) leukemia): 65 µM | GI50 (HCT-15 colon): 23.3 µM | TGI (HCT-15 colon): 94.4 µM | GI50 (SNB-75 CNS): 16.4 µM | TGI (SNB-75 CNS): 82 µM | GI50 (SK-MEL-2 melanoma): 19.6 µM | TGI (SK-MEL-2 melanoma): 37.9 µM | GI50 (COLO 205 colon): 12.6 µM | TGI (COLO 205 colon): 27.4 µM | GI50 (OVCAR-5 ovarian): 21.1 µM | TGI (OVCAR-5 ovarian): 72 µM
